pEC50: −log10 of the molar value.
Experiments:
Format in all cases: cell-based
[1] = test system: primary human mesenchymal stem cells (hMSCs); assay: Induction of chondrogenesis in hMSCs (nodule count); details: 6 days; for EC50: concentration required to induce 50% levels of chondrogenesis vs TGF-β3, read-out: Conc (nM) of 50% TGF-β3 activity; for Emax: relative to TGF-β3 (10 ng/mL) positive control, read-out: Max. Activity as % TGF-β3 activity
Source text: Representative compounds were screened using primary human mesenchymal stem cells (hMSCs) to determine their ability to induce chondrogenesis (process by which cartilage is developed).
Primary human mesenchymal stem cells (hMSCs) were purchased from Lonza (Walkersville, Md.) and expanded in Mesenchymal Stem Cell Growth Media (Lonza). Cells between passage 3 and 6 were used for the experiments.
To image chondrogenic nodules, the cells were fixed using 4% formaldehyde (Electron Microscopy Sciences), and stained with 2 μg/mL Rhodamine B (Sigma-Aldrich) and 20 μM Nile Red (Sigma-Aldrich) [Johnson K., et. al, A Stem Cell-Based Approach to Cartilage Repair, Science, (2012). […] Number of nodules in each well was normalized to the average of 3 DMSO treated wells on the same plate using Excel (Microsoft Inc.). The normalized averages (fold change over DMSO) of 3 replicate wells for each compound concentration were calculated. Due to solubility limitations of some of the compounds, curve fitting was incomplete leading to inaccurate EC50 determinations.
Using TGF-β3 as a positive control, the concentration of representative compounds required to induce 50% levels of chondrogenesis is reported. In addition, the maximum activity of each compound and the respective dose that each compound reached maximum chondrogenesis activity is reported.

IL-6 = IL-6 inhibition in LPS-stimulated THP-1 cells (HTRF); details: Homo sapiens; for inhibition at 10 µM: THP-1, read-out: percent inhibition at 10 μM; for pEC50: THP-1 cells, LPS 500 ng/mL, 22 hours, IL6 HTRF
Summary of the method: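 Serum-reduced (1% FBS, 24 h) THP-1 cells, 5000/well, exposed to compound 2 h at 37 °C, then stimulated with 500 ng/mL LPS for 22 h. Secreted IL-6 measured by HTRF (665/620 ratio), normalised to DMSO; EC50 by four-parameter fit, duplicates.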

SW480 colon cancer cells = assay: Cell viability assay (CellTiter-Blue); details: Homo sapiens; for pEC50: 96 h, SW480 cell viability, four days; for inhibition at 10 µM: SW480, 96 h, read-out: percent inhibition at 10 μM
Summary of the method: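 Fluorescence from resazurin reduced to resorufin by metabolically active cells was the read-out, taken after ~3 h with CellTiter-Blue.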

[2] = test system: primary human fibroblasts derived from IPF patients (LL29 cells); assay: Inhibition of fibrotic process, αSMA staining in TGF-β1 treated fibroblasts; details: Fibroblast; for pEC50: 96 h, LL29 cells, TGF-β1 20 ng/mL, 4 days, % αSMA positive cells; for inhibition at 10 µM: read-out: percent inhibition at 10 μM
Summary of the method: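 LL29 fibroblasts plated in F12 with 1% FBS were stimulated with TGF-β1 alongside compound, with TGF-β1 plus DMSO wells as controls. After 4 days of incubation, SYTOX green was added at 1 μM final for 30 min at room temperature.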

[3] = test system: Wnt activity (Sp5-Luc reporter, SW480 colon carcinoma cells); assay: Wnt activity screening assay, Sp5-Luc reporter gene in SW480 cells; details: Homo sapiens; for inhibition at 10 µM: SW480, read-out: percent inhibition at 10 μM; for pEC50: Sp5-Luc reporter, SW480 cells, overnight incubation
Summary of the method: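 SW480 cells stably carrying a luciferase reporter driven by an Sp5 promoter with eight TCF/LEF sites, plated overnight in 1% FBS medium at 37 °C. Luminescence read with BrightGlo. Signals normalized to DMSO-treated cells; EC50 from four-parameter variable-slope fit.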

EC50 [1] [nM]	pEC50 (IL-6)	pEC50 (SW480 colon cancer cells)	pEC50 [3]	Structure (SMILES)	Emax [1] [%]	inhibition at 10 µM (IL-6) [%]	inhibition at 10 µM (SW480 colon cancer cells) [%]	pEC50 [2]	inhibition at 10 µM [2] [%]	inhibition at 10 µM [3] [%]
100	< 5.00	< 5.00	< 5.00	O=C(Nc1cncc(-c2cnc3[nH]nc(-c4cc5c(-c6cccnc6)cncc5[nH]4)c3c2)c1)c1ccccc1 [Compound 95, N-(5-(3-(4-(Pyridin-3-yl)-1H-pyrrolo[2,3-c]pyridin-2-yl)-1H-pyrazolo[3,4-b]pyridin-5-yl)pyridin-3-yl)benzamide]	155	46.5	8.7	< 5.00	0	0
2700	5.49	6.03	5.67	Fc1ccc(-c2cncc3[nH]c(-c4n[nH]c5ncc(-c6cncc(CN7CCCC7)c6)cc45)cc23)cc1 [Compound 42, 3-(4-(4-Fluorophenyl)-1H-pyrrolo[2,3-c]pyridin-2-yl)-5-(5-(pyrrolidin-1-ylmethyl)pyridin-3-yl)-1H-pyrazolo[3,4-b]pyridine]	133	–	–	5.89	–	–
–	6.71	< 5.00	< 5.00	CC(C)(C)C(=O)Nc1cncc(-c2cnc3[nH]nc(-c4cc5c(-c6ccncc6)cncc5[nH]4)c3c2)c1 [Compound 120, N-(5-(3-(4-(Pyridin-4-yl)-1H-pyrrolo[2,3-c]pyridin-2-yl)-1H-pyrazolo[3,4-b]pyridin-5-yl)pyridin-3-yl)pivalamide]	34	–	13.5	5.57	–	5
–	6.19	< 5.00	< 5.00	CC(C)(C)CC(=O)Nc1cncc(-c2cnc3[nH]nc(-c4cc5c(-c6cccnc6)cncc5[nH]4)c3c2)c1 [Compound 100, 3,3-Dimethyl-N-(5-(3-(4-(pyridin-3-yl)-1H-pyrrolo[2,3-c]pyridin-2-yl)-1H-pyrazolo[3,4-b]pyridin-5-yl)pyridin-3-yl)butanamide]	37	–	18.4	5.72	–	17.3
–	5.93	5.14	5.59	CC(C)CC(=O)Nc1cncc(-c2cnc3[nH]nc(-c4cc5c(-c6cc(F)cc(CNS(C)(=O)=O)c6)cncc5[nH]4)c3c2)c1 [Compound 478, N-(5-(3-(4-(3-Fluoro-5-(methylsulfonamidomethyl)phenyl)-1H-pyrrolo[2,3-c]pyridin-2-yl)-1H-pyrazolo[3,4-b]pyridin-5-yl)pyridin-3-yl)-3-methylbutanamide]	46	–	–	< 5.00	21.2	–
10	< 5.00	< 5.00	< 5.00	Cc1ncc(-c2cnc3[nH]nc(-c4cc5c(-c6ccncc6)cncc5[nH]4)c3c2)n1C [Compound 573, 5-(1,2-Dimethyl-1H-imidazol-5-yl)-3-(4-(pyridin-4-yl)-1H-pyrrolo[2,3-c]pyridin-2-yl)-1H-pyrazolo[3,4-b]pyridine]	194	0	19.8	< 5.00	46.7	7.1
–	5.04	5.72	5.64	CCNCc1cncc(-c2cnc3[nH]nc(-c4cc5c(-c6ccccc6F)cncc5[nH]4)c3c2)c1 [Compound 62, N-((5-(3-(4-(2-Fluorophenyl)-1H-pyrrolo[2,3-c]pyridin-2-yl)-1H-pyrazolo [3,4-b]pyridin-5-yl)pyridin-3-yl)methyl)ethanamine]	37	–	–	5.57	–	–
10	< 5.00	5.49	5.51	Fc1cccc(-c2cncc3[nH]c(-c4n[nH]c5ncc(-c6cncc(CN7CCCCC7)c6)cc45)cc23)c1 [Compound 15, 3-(4-(3-Fluorophenyl)-1H-pyrrolo[2,3-c]pyridin-2-yl)-5-(5-(piperidin-1-ylmethyl)pyridin-3-yl)-1H-pyrazolo[3,4-b]pyridine]	108	41	–	5.71	–	–
